In patent US11413264B2, “Carbamoyl phenylalaninol analogs and uses thereof” (Jazz Pharmaceuticals Ireland Limited, priority 2017, dated 2022):
Structures can show the parent of a compound that is named as a salt. Where two headings read alike, the source gives them in different places.

How the values were obtained:
Conditions in all cases: compound at 10 μM
[1] = biological target: T1, vesicular monoamine transporter (VMAT2) (Rattus norvegicus, UniProt Q01827); test: Competitive radioligand binding assay, VMAT2 transporter (antagonist radioligand)
T1 construct: Rat brain; from tissue; host or cells: rat brain minus cerebellum, membrane fraction
Protocol: (§1) Compounds of the invention were tested for pharmacological activity in comparison to APC. Eight binding assays were carried out to provide a binding profile for each compound, including binding to dopamine transporter (DAT), norepinephrine transporter (NET), serotonin (5-HT) transporter (SERT), alpha2A adrenergic receptor (Alpha2A), alpha2C adrenergic receptor (Alpha2C), D2S dopamine receptor (D2S), D2L dopamine receptor (D2L), and vesicular monoamine transporter (VMAT2). Competitive binding assays using a radiolabeled ligand were carried out with each compound at 10 μM. The radioligand for each target was as follows: DAT—BTCP, NET—nisoxetine, SERT—imipramine, Alpha2A—yohimbine, Alpha2C—yohimbine, D2S—7-OH-DPAT, D2L—methylspiperone, VMAT2—tetrabenazine. The source of the receptors and transporters were prepared cell membrane fractions.

[2] = biological target: T2, norepinephrine transporter (NET) (Homo sapiens, UniProt P23975); test: Competitive radioligand binding assay, norepinephrine transporter (antagonist radioligand)
T2 construct: expressed in transfected cells; host or cells: CHO cells (membrane fractions)
Protocol: as §1

[3] = biological target: T3, serotonin (5-HT) transporter (SERT) (Homo sapiens, UniProt P31645); test: Competitive radioligand binding assay, 5-HT transporter (antagonist radioligand)
T3 construct: expressed in transfected cells; host or cells: CHO cells (membrane fractions)
Protocol: as §1

[4] = biological target: T4, D2L dopamine receptor (D2L) (Homo sapiens, UniProt P14416); test: Competitive radioligand binding assay, D2L (antagonist radioligand)
T4 construct: expressed in transfected cells; host or cells: HEK-293 cells (membrane fractions)
Protocol: as §1

[5] = biological target: T5, alpha2A adrenergic receptor (Alpha2A) (Homo sapiens, UniProt P08913); test: Competitive radioligand binding assay, α2A (antagonist radioligand)
T5 construct: expressed in transfected cells; host or cells: CHO cells (membrane fractions)
T5 sequence (P08913 1-465): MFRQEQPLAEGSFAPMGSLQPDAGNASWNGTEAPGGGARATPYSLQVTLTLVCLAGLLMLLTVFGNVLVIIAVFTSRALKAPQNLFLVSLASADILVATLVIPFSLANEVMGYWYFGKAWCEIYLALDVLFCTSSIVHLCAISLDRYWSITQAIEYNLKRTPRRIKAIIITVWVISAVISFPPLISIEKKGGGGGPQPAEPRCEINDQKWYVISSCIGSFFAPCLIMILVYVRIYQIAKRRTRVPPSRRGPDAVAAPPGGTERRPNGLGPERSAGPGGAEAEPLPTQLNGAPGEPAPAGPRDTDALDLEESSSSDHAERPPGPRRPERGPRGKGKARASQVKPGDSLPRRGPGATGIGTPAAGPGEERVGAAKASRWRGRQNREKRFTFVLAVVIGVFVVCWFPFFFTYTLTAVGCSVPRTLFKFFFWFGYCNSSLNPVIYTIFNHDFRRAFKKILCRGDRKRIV
Protocol: as §1

[6] = biological target: T6, dopamine transporter (DAT) (Homo sapiens, UniProt Q01959); test: Competitive radioligand binding assay, dopamine transporter (antagonist radioligand)
T6 construct: expressed in transfected cells; host or cells: CHO cells (membrane fractions)
Protocol: as §1

[7] = biological target: T7, alpha2C adrenergic receptor (Alpha2C) (Homo sapiens, UniProt P18825); test: Competitive radioligand binding assay, α2C (antagonist radioligand)
T7 construct: expressed in transfected cells; host or cells: CHO cells (membrane fractions)
T7 sequence (P18825 1-462): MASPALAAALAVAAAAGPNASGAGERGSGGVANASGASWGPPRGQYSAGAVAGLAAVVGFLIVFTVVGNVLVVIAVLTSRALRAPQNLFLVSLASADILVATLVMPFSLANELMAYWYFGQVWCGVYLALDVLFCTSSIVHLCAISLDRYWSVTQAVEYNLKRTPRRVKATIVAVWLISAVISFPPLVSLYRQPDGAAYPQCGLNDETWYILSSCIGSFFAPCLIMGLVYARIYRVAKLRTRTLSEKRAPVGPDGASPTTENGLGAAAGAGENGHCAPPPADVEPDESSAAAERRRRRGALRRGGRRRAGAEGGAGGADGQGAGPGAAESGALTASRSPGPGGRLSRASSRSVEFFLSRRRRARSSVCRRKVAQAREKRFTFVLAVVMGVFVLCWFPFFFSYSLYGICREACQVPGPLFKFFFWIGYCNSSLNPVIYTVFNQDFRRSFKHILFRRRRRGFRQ
Protocol: as §1

[8] = biological target: T8, D2S dopamine receptor (D2S) (Homo sapiens, UniProt P14416); test: Competitive radioligand binding assay, D2S (agonist radioligand)
T8 construct: expressed in transfected cells; host or cells: HEK-293 cells (membrane fractions)
Protocol: as §1

[9] = 1st individual result, read-out: % inhibition of control specific binding, 1st
[10] = 2nd individual result, read-out: % inhibition of control specific binding, 2nd
[11] = mean, read-out: % inhibition of control specific binding, Mean

T2 sequence (P23975 whole entry): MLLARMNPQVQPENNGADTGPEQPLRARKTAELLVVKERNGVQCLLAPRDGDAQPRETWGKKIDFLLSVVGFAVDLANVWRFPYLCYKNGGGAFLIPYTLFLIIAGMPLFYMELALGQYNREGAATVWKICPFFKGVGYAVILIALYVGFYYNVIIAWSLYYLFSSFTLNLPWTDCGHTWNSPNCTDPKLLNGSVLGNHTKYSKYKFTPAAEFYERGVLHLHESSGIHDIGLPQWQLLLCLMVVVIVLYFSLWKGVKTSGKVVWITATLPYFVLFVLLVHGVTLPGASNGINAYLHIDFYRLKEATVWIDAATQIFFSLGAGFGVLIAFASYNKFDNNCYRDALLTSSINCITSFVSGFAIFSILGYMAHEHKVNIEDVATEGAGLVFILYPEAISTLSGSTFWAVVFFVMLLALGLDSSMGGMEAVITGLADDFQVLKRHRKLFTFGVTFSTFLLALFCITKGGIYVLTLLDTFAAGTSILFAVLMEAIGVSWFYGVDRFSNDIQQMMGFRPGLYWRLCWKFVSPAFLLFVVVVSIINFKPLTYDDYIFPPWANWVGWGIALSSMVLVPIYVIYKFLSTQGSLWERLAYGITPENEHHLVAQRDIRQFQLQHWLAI
T4 sequence (P14416 whole entry): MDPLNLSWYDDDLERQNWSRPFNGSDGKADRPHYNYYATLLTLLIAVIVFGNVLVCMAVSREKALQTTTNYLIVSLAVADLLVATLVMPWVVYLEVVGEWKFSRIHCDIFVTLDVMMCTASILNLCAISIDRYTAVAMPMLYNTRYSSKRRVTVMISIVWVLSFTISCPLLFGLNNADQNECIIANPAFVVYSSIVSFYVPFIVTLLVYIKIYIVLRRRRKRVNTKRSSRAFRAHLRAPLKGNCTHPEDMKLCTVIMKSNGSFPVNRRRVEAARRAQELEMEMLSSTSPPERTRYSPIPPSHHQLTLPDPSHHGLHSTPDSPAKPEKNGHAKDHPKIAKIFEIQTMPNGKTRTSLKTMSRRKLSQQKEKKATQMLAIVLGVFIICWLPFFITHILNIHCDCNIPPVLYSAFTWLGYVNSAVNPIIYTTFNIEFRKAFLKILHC
T8 sequence (P14416 1-414 isoform P14416-2): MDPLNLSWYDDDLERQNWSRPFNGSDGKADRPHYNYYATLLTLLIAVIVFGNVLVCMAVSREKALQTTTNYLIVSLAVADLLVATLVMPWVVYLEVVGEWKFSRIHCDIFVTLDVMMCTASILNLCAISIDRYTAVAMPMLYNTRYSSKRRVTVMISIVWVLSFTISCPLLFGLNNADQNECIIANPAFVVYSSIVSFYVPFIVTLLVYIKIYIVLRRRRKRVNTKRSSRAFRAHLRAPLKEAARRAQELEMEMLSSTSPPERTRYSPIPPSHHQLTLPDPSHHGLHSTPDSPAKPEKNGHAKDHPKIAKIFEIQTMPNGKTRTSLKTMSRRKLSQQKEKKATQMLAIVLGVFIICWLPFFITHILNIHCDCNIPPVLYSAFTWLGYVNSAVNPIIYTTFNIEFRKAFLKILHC
T3 sequence (P31645 whole entry): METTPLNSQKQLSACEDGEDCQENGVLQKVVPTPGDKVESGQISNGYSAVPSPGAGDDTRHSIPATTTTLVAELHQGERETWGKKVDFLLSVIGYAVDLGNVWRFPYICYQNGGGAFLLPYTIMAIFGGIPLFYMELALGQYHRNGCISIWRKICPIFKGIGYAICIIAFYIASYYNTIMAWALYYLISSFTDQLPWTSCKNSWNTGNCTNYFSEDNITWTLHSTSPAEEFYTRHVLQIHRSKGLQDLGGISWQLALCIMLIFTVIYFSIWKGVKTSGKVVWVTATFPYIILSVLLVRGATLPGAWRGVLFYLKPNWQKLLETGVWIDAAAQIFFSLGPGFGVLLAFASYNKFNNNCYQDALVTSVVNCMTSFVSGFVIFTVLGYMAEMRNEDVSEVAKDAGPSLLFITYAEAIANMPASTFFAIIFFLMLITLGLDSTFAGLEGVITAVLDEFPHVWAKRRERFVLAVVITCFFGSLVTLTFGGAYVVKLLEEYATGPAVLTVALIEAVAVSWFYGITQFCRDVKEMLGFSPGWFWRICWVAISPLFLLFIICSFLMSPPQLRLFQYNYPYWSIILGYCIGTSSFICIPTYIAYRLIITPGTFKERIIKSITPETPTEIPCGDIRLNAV
T6 sequence (Q01959 whole entry): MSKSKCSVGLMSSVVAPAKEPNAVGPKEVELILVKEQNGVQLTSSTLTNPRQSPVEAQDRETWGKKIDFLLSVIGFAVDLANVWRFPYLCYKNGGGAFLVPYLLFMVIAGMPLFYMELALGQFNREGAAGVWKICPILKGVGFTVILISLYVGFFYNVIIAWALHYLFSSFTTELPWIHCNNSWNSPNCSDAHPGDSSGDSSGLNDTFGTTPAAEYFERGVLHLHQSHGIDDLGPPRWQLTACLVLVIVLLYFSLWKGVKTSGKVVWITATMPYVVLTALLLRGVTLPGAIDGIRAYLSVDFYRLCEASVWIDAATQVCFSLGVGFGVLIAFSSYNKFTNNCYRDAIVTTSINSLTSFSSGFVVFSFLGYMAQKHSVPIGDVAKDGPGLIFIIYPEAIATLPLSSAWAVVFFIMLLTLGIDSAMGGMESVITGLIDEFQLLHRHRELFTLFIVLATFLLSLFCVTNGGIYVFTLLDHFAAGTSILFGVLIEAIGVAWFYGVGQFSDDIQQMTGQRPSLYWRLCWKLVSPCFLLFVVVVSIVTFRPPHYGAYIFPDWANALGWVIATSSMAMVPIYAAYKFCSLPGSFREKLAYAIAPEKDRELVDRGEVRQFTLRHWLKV
T1 sequence (Q01827 whole entry): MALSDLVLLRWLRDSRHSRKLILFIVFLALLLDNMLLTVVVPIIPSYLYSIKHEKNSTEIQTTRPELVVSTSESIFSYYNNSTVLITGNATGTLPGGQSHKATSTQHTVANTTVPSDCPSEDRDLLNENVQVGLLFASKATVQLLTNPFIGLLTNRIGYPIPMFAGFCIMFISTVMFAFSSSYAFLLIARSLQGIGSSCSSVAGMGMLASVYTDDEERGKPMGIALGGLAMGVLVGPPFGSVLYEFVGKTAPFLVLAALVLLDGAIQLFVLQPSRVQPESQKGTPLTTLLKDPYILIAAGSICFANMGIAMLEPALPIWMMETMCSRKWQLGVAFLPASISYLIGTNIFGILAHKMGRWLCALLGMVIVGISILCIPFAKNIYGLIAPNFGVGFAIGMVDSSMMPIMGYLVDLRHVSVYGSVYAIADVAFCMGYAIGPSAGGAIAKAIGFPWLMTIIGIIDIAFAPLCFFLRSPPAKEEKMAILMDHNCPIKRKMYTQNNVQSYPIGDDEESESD

NC(=O)SC[C@H](N)Cc1ccccc1 [Compound 10, (R)—S-(2-Amino-3-phenylpropyl) carbamothioate hydrochloride]
inhibition at 10 µM ([1]; VMAT2 transporter, single value, read-out: % inhibition of control specific binding, 1st): 5% | inhibition at 10 µM ([1]; [3H]dihydrotetrabenazine 10 nM, rat brain (minus cerebellum), read-out: % Inhibition of Binding at Each Transporter or Receptor Target, VMAT2): 5% | inhibition at 10 µM ([2]; Norepinephrine transporter, 1st individual result, read-out: % inhibition of control specific binding, 1st): 91.7% | inhibition at 10 µM ([2]; Norepinephrine transporter, 2nd individual result, read-out: % inhibition of control specific binding, 2nd): 91.7% | inhibition at 10 µM ([2]; Norepinephrine transporter, mean, read-out: % inhibition of control specific binding, Mean): 91.7% | inhibition at 10 µM ([2]; [3H]nisoxetine 1 nM, human recombinant (CHO cells), read-out: % Inhibition of Binding at Each Transporter or Receptor Target, NET): 91.7% | binding to the norepinephrine transporter (in words) ([2]; summary): substantial binding | inhibition at 10 µM ([3]; 5-HT transporter, 1st individual result, read-out: % inhibition of control specific binding, 1st): 21.7% | inhibition at 10 µM ([3]; 5-HT transporter, 2nd individual result, read-out: % inhibition of control specific binding, 2nd): 22% | inhibition at 10 µM ([3]; 5-HT transporter, mean, read-out: % inhibition of control specific binding, Mean): 21.9% | inhibition at 10 µM ([3]; [3H]imipramine 2 nM, human recombinant (CHO cells), read-out: % Inhibition of Binding at Each Transporter or Receptor Target, SERT): 21.9% | inhibition at 10 µM ([4]; D2L, 1st individual result, read-out: % inhibition of control specific binding, 1st): 33.7% | inhibition at 10 µM ([4]; D2L, 2nd individual result, read-out: % inhibition of control specific binding, 2nd): 35.6% | inhibition at 10 µM ([4]; D2L, mean, read-out: % inhibition of control specific binding, Mean): 34.7% | inhibition at 10 µM ([4]; [3H]methyl-spiperone 0.3 nM, human recombinant (HEK-293 cells), read-out: % Inhibition of Binding at Each Transporter or Receptor Target, D2L): 34.7% | inhibition at 10 µM [5, 9]: 64.4% | inhibition at 10 µM [5, 10]: 46.1% | inhibition at 10 µM [5, 11]: 55.3% | inhibition at 10 µM ([6]; Dopamine transporter, 1st individual result, read-out: % inhibition of control specific binding, 1st): 85.3% | inhibition at 10 µM ([6]; Dopamine transporter, 2nd individual result, read-out: % inhibition of control specific binding, 2nd): 87.3% | inhibition at 10 µM ([6]; Dopamine transporter, mean, read-out: % inhibition of control specific binding, Mean): 86.3% | inhibition at 10 µM ([6]; [3H]BTCP 4 nM, human recombinant (CHO cells), read-out: % Inhibition of Binding at Each Transporter or Receptor Target, DAT): 86.3% | binding to the dopamine transporter (in words) ([6]; summary): substantial | inhibition at 10 µM [7, 9]: 89.3% | inhibition at 10 µM [7, 10]: 92.4% | inhibition at 10 µM [7, 11]: 90.9% | inhibition at 10 µM ([8]; D2S, 1st individual result, read-out: % inhibition of control specific binding, 1st): 89.5% | inhibition at 10 µM ([8]; D2S, 2nd individual result, read-out: % inhibition of control specific binding, 2nd): 90.5% | inhibition at 10 µM ([8]; D2S, mean, read-out: % inhibition of control specific binding, Mean): 90% | inhibition at 10 µM ([8]; [3H]7-OH-DPAT 1 nM, human recombinant (HEK-293 cells), read-out: % Inhibition of Binding at Each Transporter or Receptor Target, D2S): 90%
